We go through eight compounds from paper PMC9785969, “Synthesis, Biological Evaluation, and Molecular Dynamics of Carbothioamides Derivatives as Carbonic Anhydrase II and 15-Lipoxygenase Inhibitors” (Molecules, 2022).

Structures are written as SMILES. “Also recorded” adds a separate entry of the source. Like-named read-outs stand apart in the source and are kept apart here.

Series [1] concerns the target bovine carbonic anhydrase II (b-CA II) (Bos taurus, UniProt P00921). Nature of the series: Carbonic anhydrase (b-CA II) inhibition assay, p-nitrophenyl acetate hydrolysis. The note with it: for selectivity for b-CA II over 15-LOX: b-CA II vs 15-LOX. It is filed as biochemical. How it is done: Carbonic anhydrase (b-CA II) inhibition activity was determined according to the previously reported protocol. IC50 values were calculated through GraphPad PRISM 5.0 Software Inc., San Diego, CA, USA.
This method is based on the spectrophotometric determination of hydrolytic product of substrate p-nitrophenyl acetate substrate. Assay volume was kept at 100 µL, comprised of 60 µL of Tris-sulfate buffer (50 mM, 0.1 mM ZnCl2 at pH 7.6), 10 µL of test compound with concentration of 50 µM and 10 µL (50 U) of b-CA II. The reaction mixture was incubated at 25 °C for 10 min and […]
Reaction was initiated by addition of 20 µL of p-nitrophenyl acetate (6mM) as substrate and incubated for further 30 min. […]
test compounds. All experiments were performed in triplicate and dose response curves were […]
(1 picture or pasted object on this page, not shown here)

Another series addresses T1, 15-lipoxygenase (15-LOX) (Glycine max, UniProt P08170).
T1 sequence (P08170 1-839): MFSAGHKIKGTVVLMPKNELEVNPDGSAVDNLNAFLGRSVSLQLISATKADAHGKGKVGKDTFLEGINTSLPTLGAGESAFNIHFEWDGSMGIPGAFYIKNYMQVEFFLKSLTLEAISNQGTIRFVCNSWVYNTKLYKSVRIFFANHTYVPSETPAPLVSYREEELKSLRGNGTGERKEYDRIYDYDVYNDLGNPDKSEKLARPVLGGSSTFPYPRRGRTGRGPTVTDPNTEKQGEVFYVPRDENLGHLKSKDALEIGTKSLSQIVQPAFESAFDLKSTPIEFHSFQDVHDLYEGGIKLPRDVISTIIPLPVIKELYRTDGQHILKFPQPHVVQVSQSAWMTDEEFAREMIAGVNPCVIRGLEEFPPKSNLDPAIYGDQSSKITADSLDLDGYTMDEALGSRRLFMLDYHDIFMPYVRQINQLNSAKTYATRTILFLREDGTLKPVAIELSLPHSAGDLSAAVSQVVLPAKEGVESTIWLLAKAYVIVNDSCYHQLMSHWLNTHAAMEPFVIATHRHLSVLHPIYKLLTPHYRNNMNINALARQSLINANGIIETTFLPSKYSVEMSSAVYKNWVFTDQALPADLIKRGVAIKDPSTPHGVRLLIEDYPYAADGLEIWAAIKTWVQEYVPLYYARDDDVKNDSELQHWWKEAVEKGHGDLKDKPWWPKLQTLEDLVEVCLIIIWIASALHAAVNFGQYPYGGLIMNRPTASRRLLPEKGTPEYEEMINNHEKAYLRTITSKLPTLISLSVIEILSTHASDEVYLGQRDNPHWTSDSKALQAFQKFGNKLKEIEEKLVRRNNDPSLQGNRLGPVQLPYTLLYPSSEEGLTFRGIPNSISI
Nature of the series: Lipoxygenase (15-LOX) inhibition assay, linoleic acid substrate, absorbance 234 nm. It is filed as biochemical. The note with it: for IC50: mean of three experiments, read-out: 15-LOX IC50 ± SEM; for inhibition at 100 µM: final concentration of 100 μM. As to the method: The lipoxygenase activity was determined with the some modifications to the reported method. The compounds were first screened at 0.1 mM. Assay buffer was made containing 100 mM KH2PO4 and the pH was adjusted at 8.0. Initially, 145 µL of assay buffer was added in each well of a 96-well plate, followed by the addition of 10 µL of 15-LOX enzyme (42.5 units/well). Then, 20 µL of test compound was added in each well and incubated for 10 min at 25 °C. Absorbance was measured at 234 nm by multimode micro-plate reader, FLUOstar Omega, Germany as a pre-read value. Further reaction was carried out by adding of 25 µL of substrate linoleic acid and incubation for 10 min at 25 °C. After incubation, absorbance was calculated again at 234 nm as after read. […] The IC50 values for all experiments were determined using a nonlinear curve fitting tool and all experiments were carried out in triplicate format in GraphPad PRISM 5.0 (GraphPad, San Diego, CA, USA).

Setting [2] is: mean of three experiments, read-out: b-CA II IC50 ± SEM.

Chain of bovine carbonic anhydrase II (b-CA II) (P00921 whole entry): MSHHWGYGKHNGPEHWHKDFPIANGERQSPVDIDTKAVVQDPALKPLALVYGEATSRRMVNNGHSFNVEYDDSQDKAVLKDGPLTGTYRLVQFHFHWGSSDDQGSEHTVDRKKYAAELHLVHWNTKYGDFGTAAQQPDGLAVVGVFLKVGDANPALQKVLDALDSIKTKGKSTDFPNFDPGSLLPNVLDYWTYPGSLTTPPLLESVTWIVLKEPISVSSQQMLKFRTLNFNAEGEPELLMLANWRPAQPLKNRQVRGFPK

Take `NC(=S)N/N=C/c1ccccc1F` [3c]: the IC50 – broadly, the concentration that gives 50% inhibition – in series [1] (setting [2]) came out at 2020 ± 120 nM; on 15-lipoxygenase (15-LOX), 160 ± 10 nM.
For the compound `NC(=S)N/N=C/c1cccc(F)c1` [3h], the IC50 worked out at 130 ± 10 nM in series [1] and 140 ± 10 nM on 15-lipoxygenase (15-LOX). In addition, in series [1] (vs acetazolamide), the “fold higher potential towards b-CA II compared with standard inhibitor acetazolamide” value is “≈ 7 fold”.
For `NC(=S)N/N=C/c1ccc(Br)s1` [3f], the melting point (commonly the temperature, or range, at which the solid turns liquid) is 243 °C. For the same compound, in series [1] (setting [2]), the IC50 stood at 10200 ± 210 nM. The IC50 at 15-lipoxygenase (15-LOX) came out at 820 ± 190 nM.
Take `NC(=S)N/N=C/c1c(F)cccc1Cl` [3g]: in series [1], the “selectivity for b-CA II over 15-LOX” value is reported as “selective towards b-CA II; also recorded: selective inhibitors of CA II”. The IC50 in series [1] (setting [2]) worked out at 840 ± 50 nM. The inhibition (usually the change of the read-out against control, counted positive when it falls) at 100 µM at 15-lipoxygenase (15-LOX) is less than 50%.
Regarding `C#CCN(C)c1ccc(/C=N/NC(N)=S)cc1` [3b], the melting point is 245 °C. In addition, the “selectivity for b-CA II over 15-LOX” value in series [1] is “selective towards b-CA II; also recorded: selective inhibitors of CA II”. In addition, the IC50 in series [1] (setting [2]) came out at 4970 ± 160 nM. The compound also showed an inhibition at 100 µM at 15-lipoxygenase (15-LOX) of less than 50%.
In the same order, the values of `NC(=S)N/N=C/c1cc([N+](=O)[O-])ccc1Cl` [3d] are 248 °C, “selective towards b-CA II; also recorded: selective inhibitors of CA II”, 280 ± 10 nM and less than 50%.
For `COc1ccc(/C=N/NC(N)=S)cc1O` [3e], the results for the IC50 (in series [1] (setting [2]); on 15-lipoxygenase (15-LOX)) were 380 ± 20 nM and 1340 ± 140 nM, respectively.
As for `COc1cc2cc(OC)c(OC)c(/C=N/NC(N)=S)c2cc1OC` [3a], the melting point was determined as 240 °C. Besides, the IC50 in series [1] (setting [2]) was 310 ± 10 nM. At 15-lipoxygenase (15-LOX), the IC50 came to 370 ± 20 nM.
